Assay [1] deals with WD-induced hepatic steatosis. The experiment in a line: Liver H&E/ORO histology and hepatic lipid (TG, TC) quantification in WD-fed apoE−/− mice. It is filed as in vivo. As to conditions: for Hepatic steatosis by H&E staining / HS by histology and lipid quantification: apoE−/− mice on WD; for Hepatic steatosis by H&E staining: 12 weeks; for Hepatic TC, decreased by / Hepatic TG, decreased by: extracted hepatic lipids, endpoint, vs WD+H2O; for HS by histology and lipid quantification: endpoint (FIG. 16A-C). The text has this: (§1) Eight-week-old male apolipoprotein E-deficient (apoE−/−) mice (B6.129P2-Apoetm1Unc/J, Stock No.: 002052) were obtained from Jackson Laboratories. Mice were fed Western diet (WD, 42% of calories from fat and 0.2% cholesterol by weight, Envigo TD.88137). After one week of WD feeding, blood was carefully collected from the facial vein to determine baseline plasma levels of total cholesterol (TC). […] All mice were maintained on a 12-hour light/dark cycle and had ad libitum access to food and water. Body weight and food intake were measured every one and three weeks, respectively
Histology processing was performed by the In Vivo Animal Core (IVAC) Histology Laboratory within the Unit for Laboratory Animal Medicine (ULAM) of the University of Michigan. Formalin-fixed tissues were processed through graded alcohols and cleared with xylene followed by infiltration with molten paraffin using an automated VIP5 or VIP6 tissue processor (TissueTek, Sakura-Americas). Following paraffin embedding using a Histostar Embedding Station (ThermoFisher Scientific), tissues were sectioned on a M 355S rotary microtome (ThermoFisher Scientific) at 4 μm thickness and mounted on glass slides. Following deparaffinization and hydration with xylene and graded alcohols, slides were stained for hematoxylin and eosin (H&E) using Harris hematoxylin (ThermoFisher Scientific, Cat #842), differentiated with Clarifier (ThermoFisher Scientific, Cat #7401), blued with bluing reagent (ThermoFisher Scientific, Cat #7301), stained with eosin Y, alcoholic (ThermoFisher Scientific, Cat #832), then dehydrated and cleared through graded alcohols and xylene and coverslipped with Micromount (Leica cat #3801731) using a Leica CV5030 automatic coverslipper. Immunohistochemical staining was performed on an IntelliPATH FLX automated immunohistochemical stainer (Biocare Medical, Cat #IPS0001US) and included blocking for endogenous peroxidases and non-specific binding, detection using a horseradish peroxidase biotin-free polymer based commercial detection system, disclosure with diaminobenzidine chromogen, and nuclear counterstaining with hematoxylin. Specific to F4/80, (Bio-Rad ABD Serotec, Cat #MCA497), the rat monoclonal primary antibody (clone CI:A3-1) was diluted to 1:400 in DaVinci Diluent (Biocare Medical, Cat #PD900) and incubated for 60 min followed by detection using Rat-on-Mouse HRP-Polymer, (Biocare Medical, Cat #RT517) 2-step probe-polymer incubation for 10 and 30 min respectively.
Livers were rapidly removed from the euthanized mice and kept at −80° C. Frozen liver samples (approximately 100 mg) were homogenized in PBS and centrifuged (14,000 RPM, 20 min). The supernatants were collected and analyzed for protein content by the Bio-Rad Bradford assay. To assess liver lipid composition, lipids were extracted from the supernatants using hexane ([…], 32293, Sigma-Aldrich) and isopropanol (≥99.5%, A426-4, Fisher Scientific) at a 3:2 ratio (v:v), and the hexane phase was left for evaporation for 48 h. The amount of liver TG or TC was determined spectrophotometrically using commercially available kits (Wako Chemicals). Data were normalized to protein levels and presented as μg TG or TC/mg protein.
Livers were rapidly removed from the euthanized mice, snap-frozen with liquid nitrogen, and kept at −80° C. Frozen liver samples (100 mg) were homogenized in PBS and centrifuged (14,000 RPM, 20 min). The supernatants were collected and analyzed for protein content using Bio-Rad Bradford assay. To assess liver lipid composition, lipids were extracted from the supernatants using hexane (≥99%, Sigma-Aldrich 32293) and isopropanol (≥99.5%, Fisher Scientific A428-4) at a 3:2 ratio (v:v), and the hexane phase was left for evaporation for 48 h. […] Liver diacylglycerols (DAG) were determined using ELISA Kit (Aviva Systems Biology, OKEH02607), according to the manufacturer's instructions. Hepatic TG, TC and DAG data were normalized to protein levels.

The test system of assay [2] is atherosclerotic lesions. The experiment in a line: Analysis of atherosclerotic lesions (Oil Red O, en face aorta) in WD-fed apoE−/− mice. As to conditions: apoE−/− mice on WD, 12 weeks; vs WD+H2O. It is filed as in vivo.
From the text: as §1
After collection of blood, the mice were perfused with 20 mL of saline solution through the heart, followed by 20 mL of 37% formalin. The mice were fixed with formalin and the whole aortic tree was dissected under a surgical microscope. Next, the aortic trees were stained with Oil Red O solution (0.2% Oil Red O (w/v) in 3.5:1 of methanol:1N NaOH) for 50 min, followed by 70% ethanol for 30 min. Aortic trees were then kept in DDW. The aortic trees were then cleared of adhering adipose and connective tissues, and longitudinally opened with Vannas scissors to expose the atherosclerotic lesions. Images of whole aortic trees were obtained using a digital camera, and the percentage of the plaque area stained by Oil Red O with respect to the total luminal surface area was quantified with ImageJ analysis software (http://imagej.nih.gov/ij/).

Assay [3] deals with liver transcriptome. It is filed as in vivo, mice. As to conditions: for Pro-inflammatory signaling regulator and cytokine genes (NFKB1/2, RELB, CCR1/2/5, TLR1/2/4, TNFRSF1A/9/12, TNFα, CCL2/5) / Key genes regulating FAO (PPARα, PGC1α, ACOX1, CPT2, ACADS/M/L, HADHA/B, ACOT3/4) / TGFβ signaling and ECM remodeling pathways/genes (RNA-sequencing): NASH-diet; for Pro-inflammatory signaling regulator and cytokine genes (NFKB1/2, RELB, CCR1/2/5, TLR1/2/4, TNFRSF1A/9/12, TNFα, CCL2/5) / Key genes regulating FAO (PPARα, PGC1α, ACOX1, CPT2, ACADS/M/L, HADHA/B, ACOT3/4): RNA-sequencing; for Key genes regulating FAO (PPARα, PGC1α, ACOX1, CPT2, ACADS/M/L, HADHA/B, ACOT3/4): confirmed by qPCR and Western blot; for TGFβ signaling and ECM remodeling pathways/genes (RNA-sequencing): liver. The procedure: Library preparation and sequencing were performed by the U-M DNA Sequencing Core on a NovaSeq 6000 Sequencing System (Illumina). RNA-sequencing and pathway analyses were performed as described.
Total RNA from mouse liver samples was extracted as described above. Library preparation and sequencing were performed by the University of Michigan DNA Sequencing Core. RNA was assessed for quality using the TapeStation (Agilent, Santa Clara, Calif.). […] Samples were prepped using the NEBNext Ultra II Directional RNA Library Prep Kit for Illumina (NEB, E7760L) with Poly(A) mRNA Magnetic Isolation Module (NEB, E7490L) and NEBNext Multiplex Oligos for Illumina Unique dual (NEB, E6440L), where 10 ng-1 μg of total RNA were subjected to mRNA polyA purification. The mRNA was then fragmented and copied into first strand cDNA using reverse transciptase and dUTP mix. Samples underwent end repair and dA-Tailing step followed by ligation of NEBNext adapters. The products were purified and enriched by PCR to create the final cDNA library. Final libraries were checked for quality and quantity by TapeStation (Agilent) and qPCR using Kapa's library quantification kit for Illumina Sequencing platforms (Kapa Biosystems, KK4835). Libraries were paired-end sequenced on a […] Sequencing System (Illumina).
The quality of the raw Fastq files was checked through FastQC v0.11.8 (https://www.bioinformaties.babraham.ac.uk/projects/fastqc/). Trimmomatic v.0.35 was used to trim the low-quality reads with the parameters: SLIDINGWINDOW:4:20 MINLEN:25.12 The resulted high-quality reads were then mapped to the mouse reference genome (GRCm38.90) using HISAT2 v.2.1.0.13 Gene level quantification was performed using HTSeq-counts v0.6.0 based on the GRCm38.90 genome annotations.14 The R package DESeq2 was then used to identify significant differentially expressed genes. 15 We considered genes with adjusted P value less than 0.05 and absolute fold change larger than 2 as significant differentially expressed genes (DEGs). […] 16 The significance of the enrichment was determined by right-tailed Fisher's exact test followed by Benjamini-Hochberg multiple testing adjustment.
Mice fed CD and administered H2O served as control.
On the technique in general: Quantitative PCR measures a nucleic acid by following its amplification.

Non-standard residues stand in square brackets, D forms with d. No end group written: not given here.

As to `CC(C)C[C@H](N)C(=O)O` [leucine], in assay [1], the “Hepatic steatosis by H&E staining” value was “marked microvesicular and macrovesicular steatosis”; the “Hepatic TC, decreased by” value was “no significant effects”; the “Hepatic TG, decreased by” value is given as “no significant effects”. Also, in assay [2], the “Total atherosclerotic plaques (en face aortic lesions, Oil Red O), reduction by” value (“Total atherosclerotic plaques … reduction by” below) is on record as “but not in mice treated with leucine”. Further, in assay [3], the “Pro-inflammatory signaling regulator and cytokine genes (NFKB1/2, RELB, CCR1/2/5, TLR1/2/4, TNFRSF1A/9/12, TNFα, CCL2/5)” value is on record as “upregulated”; the “Key genes regulating FAO (PPARα, PGC1α, ACOX1, CPT2, ACADS/M/L, HADHA/B, ACOT3/4)” value (from here on “Key genes regulating FAO”) is “suppressed”.
Regarding Gly-Gly-Leu [DT-109], in assay [1], the “Hepatic steatosis by H&E staining” value was “abolished”; the “HS by histology and lipid quantification” value is given as “reduced HS”; the “Hepatic TC, decreased by” value is given as 71%; the “Hepatic TG, decreased by” value is listed as 73%. In assay [2], the “Total atherosclerotic plaques … reduction by” value was 62%. The “Pathway analysis, NASH-diet H2O control vs treatment” value in assay [3] (DT-109 0.5 mg/g/day) is recorded as “reversed NASH-diet-induced alterations in underlying pathways”. In addition, in assay [3], the “TGFβ signaling and ECM remodeling pathways/genes (RNA-sequencing)” value is given as “attenuated”; the “Pro-inflammatory signaling regulator and cytokine genes (NFKB1/2, RELB, CCR1/2/5, TLR1/2/4, TNFRSF1A/9/12, TNFα, CCL2/5)” value is “attenuated”; the “Key genes regulating FAO” value is “reversed”.
As to Gly-Gly-[dL] [DT-110], in assay [1], the “Hepatic steatosis by H&E staining” value is given as “abolished”; the “Hepatic TC, decreased by” value was determined as 63%; the “Hepatic TG, decreased by” value is recorded as 68%. Further, in assay [2], the “Total atherosclerotic plaques … reduction by” value worked out at 49%.
Consider `NCC(=O)O` [glycine, reference compound], for which, in assay [1], the “Hepatic steatosis by H&E staining” value was “abolished”; the “HS by histology and lipid quantification” value was “reduced HS”; the “Hepatic TC, decreased by” value is 76%; the “Hepatic TG, decreased by” value was 74%. Also, in assay [2], the “Total atherosclerotic plaques … reduction by” value is listed as 48%. In addition, in assay [3], the “TGFβ signaling and ECM remodeling pathways/genes (RNA-sequencing)” value is listed as “attenuated”; the “Pro-inflammatory signaling regulator and cytokine genes (NFKB1/2, RELB, CCR1/2/5, TLR1/2/4, TNFRSF1A/9/12, TNFα, CCL2/5)” value was “attenuated”; the “Key genes regulating FAO” value is “reversed”.

For the origin of these results see patent publication US20230181673A1, “TRI-PEPTIDES AND TREATMENT OF METABOLIC, CARDIOVASCULAR AND INFLAMMATORY DISORDERS” (Diapin Therapeutics, LLC, priority 2018, published 2023).
